Data set [1] concerns bladder hyperactivity induced by infusing acetic acid. The data set can be described thus: Instillation of liposomal drug 24 h / 48 h before acetic acid-induced bladder hyperactivity (CMG). It is filed as in vivo, rats. The following applies: intravesical, two subjects per group. The protocol: Similarly, instillation of liposomal-Compound 3a was first conducted. Then, 24 hours and 48 hours after instillation, under urethane anesthesia, bladder hyperactivity was induced by infusing acetic acid at the concentration of 0.125% and 025%. Prior to acetic acid infusion, baseline CMG was conducted by saline infusion (0.04 ml/min) to measure intercontraction interval (ICI). A percentage reduction in ICI was measured following acetic acid infusion as an indicator of bladder irritation.
(§1) See, FIGS. 9B and 9C, respectively. Each group consisted of a minimum of seven subjects, except for those of a preliminary dose response study, where two subjects were used in each group. The preliminary dose response study indicated an optimal Compound 3a dose of 0.8 mg/ml. See, FIG. 9A. In these experiments, 1.6 mg/ml was highest concentration of Compound 3a encapsulated into liposomes; higher concentrations apparently compromised formulation stability.

Data set [2] is described as follows: Encapsulation into liposomes / formulation stability. Type of data set: physicochemical. On the procedure: as §1
In data set [3] the test system is bladder overactivity induced by intravesical administration of acetic acid solution. The data set can be described thus: Cystometrograms, acute bladder irritation by acetic acid infusion, i.v. drug. Type of data set: in vivo, rats. Conditions: for intercontraction interval (ICI), % of the control value: 0.25% acetic acid infusion, vehicle 42.9%; for pressure threshold (PT), % of the control value: vehicle 87.1%. On the procedure: (§2) Cystometrograms (CMGs) were performed under urethane anesthesia (1 g/kg s.c.) using a catheter inserted into the bladder through the bladder dome via a midline abdominal incision. Saline was infused at a rate of 0.04 ml/min to elicit repetitive bladder contractions. Effects of intravenous (i.v.) injection of Compound 3a on bladder overactivity induced by either intravesical administration of acetic acid solution or one day treatment with cyclophosphamide were investigated. […] Thus, these compounds can be effective for the treatment of pain and urinary frequency symptoms in patients with painful bladder syndrome/interstitial cystitis.
Saline infusion was performed for 1 to 2 hours prior to drug (or vehicle) administration and control CMGs were recorded. Compound 3a (aka CT-3 or IP-751, dissolved in 30% Cremophor EL saline solution; three concentrations of 1, 3, and 10 mg/kg) or vehicle was administrated intravenously when starting infusion of acetic acid solution (0.25%) into the bladder.
Changes in cystometric parameters such as intercontraction intervals (ICIs), maximum voiding pressure (MVP), pressure threshold (PT) and baseline pressure (BP) were evaluated before and after i.v. administration of Compound 3a or vehicle.
In the vehicle group, 0.25% acetic acid infusion induced significant bladder overactivity, as evidenced by a reduction in ICIs to 42.9% of the control value.

The test system of data set [4] is cyclophosphamide-induced bladder overactivity. The data set can be described thus: Cystometrograms, subacute bladder irritation by cyclophosphamide, i.v. drug. Type of data set: in vivo, rats. On the procedure: as §2
One day after intraperitoneal injection of cyclophosphamide (CYP, 150 mg/kg), control CMGs were recorded for 1 to 2 hour prior to i.v. administration of Compound 3a or vehicle. See, example i, above. Following administration of Compound 3a, changes in cystometric parameters such as ICIs, MVP, PT and BP were recorded to evaluate the effects of Compound 3a on cyclophosphamide-induced bladder overactivity.
Bladder overactivity indicated by significant ICI reductions was observed one day after CYP injection.

The mark [5] stands for this setting: 10 mg/kg, worded as 'expected to increase'.
[6] abbreviates: CYP-treated rats, after administration.

Take `CCCCCCC(C)(C)c1cc(O)c2c(c1)OC(C)(C)[C@@H]1CC=C(C(=O)O)CC21` (stereo partly drawn) [Compound 3a, (6aR,10aR)-Δ^8-THC-DMH-11-oic Acid]: the “optimal dose in preliminary dose response study” value in data set [1] turned out to be 0.8 mg/mL. For the same molecule, the “highest concentration encapsulated into liposomes (higher concentrations compromised formulation stability)” value in data set [2] was determined as 1.6 mg/mL. Further, the “intercontraction interval (ICI), % of the control value” in data set [3] (1 mg/kg i.v.) is reported as 45.2 % of the control value; in data set [3] (3 mg/kg i.v.), 51.1 % of the control value; in data set [3] (10 mg/kg i.v., P<0.05, n=6), 112.4 % of the control value. Also, the entries for the “pressure threshold (PT), % of the control value” in data set [3] (1 mg/kg i.v.), in data set [3] (3 mg/kg i.v.) and in data set [3] (setting [5]) were 74.1 % of the control value, 94.1 % of the control value and 127.2 % of the control value, respectively. Also, the “acetic acid-induced bladder overactivity” value in data set [3] (10 mg/kg i.v., without affecting bladder contractions during voiding) is reported as “significantly suppressed”. For the same molecule, the “baseline pressure (BP), change” value in data set [3] (i.v., acetic acid infusion) is listed as “No significant changes”; in data set [4] (setting [6]), “No significant changes”. The “maximum voiding pressure (MVP), change” value in data set [3] (i.v., acetic acid infusion) is “No significant changes”; in data set [4] (setting [6]), “No significant changes”. For the same molecule, the CYP-induced bladder overactivity entry in data set [4] (10 mg/kg i.v., CYP-treated rats) is “significantly suppressed”. Besides, the “intercontraction interval (ICI) after drug” value in data set [4] (10 mg/kg i.v., one day after CYP 150 mg/kg i.p., control value 3.65 min, vehicle 3.89 vs. 3.94 min) is recorded as 5.14 min. Further, the “pressure threshold (PT), change” value in data set [4] (setting [6]) is listed as “No significant changes”.

With `CCCCCCC(C)(C)c1cc(OC(C)=O)c2c(c1)OC(C)(C)[C@@H]1CC=C(C(=O)O)C[C@@H]21` [Compound 3c, (6aR,10aR)-Δ^8-THC-DMH-11-oic Acid Acetate], the “pressure threshold (PT), % of the control value” in data set [3] (setting [5]) is listed as 127.2 % of the control value.

(Values after US8637087B2, “Treatment of interstitial cystitis using (6aR, 10aR)-Δ8-tetrahydrocannabinol-11-OIC acids” (JB Therapeutics Inc., priority 2004, dated 2014).)
